PubChem BioAssay AID1259407 (Chemical Carcinogenesis Research Information System (CCRIS), 2018)
Active and inactive are the calls of the source. No rule for the calls is given here.

System: CCRIS mutagenicity, Ames/micronucleus/aberration tests
Experiment: CCRIS mutagenicity studies
[1] = Test System: AMES SALMONELLA TYPHIMURIUM, Strain/Indicator: TA98(1,8-DNP6), Metabolic Activation: NONE, Method: STANDARD PLATE
[2] = Test System: AMES SALMONELLA TYPHIMURIUM, Strain/Indicator: TA98(NR), Metabolic Activation: NONE, Method: STANDARD PLATE
[3] = Test System: AMES SALMONELLA TYPHIMURIUM, Strain/Indicator: TA98, Metabolic Activation: NONE, Method: STANDARD PLATE
[4] = Test System: AMES SALMONELLA TYPHIMURIUM, Strain/Indicator: TA98, Metabolic Activation: S-9, Method: STANDARD PLATE
[5] = Test System: AMES SALMONELLA TYPHIMURIUM, Strain/Indicator: TA100, Metabolic Activation: NONE, Method: STANDARD PLATE
[6] = Test System: AMES SALMONELLA TYPHIMURIUM, Strain/Indicator: TA100, Metabolic Activation: S-9, Method: STANDARD PLATE
[7] = Test System: AMES SALMONELLA TYPHIMURIUM, Strain/Indicator: TA98, Metabolic Activation: NONE, Method: PREINCUBATION
[8] = Test System: AMES SALMONELLA TYPHIMURIUM, Strain/Indicator: TA100, Metabolic Activation: NONE, Method: PREINCUBATION
[9] = Test System: AMES SALMONELLA TYPHIMURIUM, Strain/Indicator: TA98, Metabolic Activation: RAT, LIVER, S-9, AROCLOR 1254, Method: STANDARD PLATE
[10] = Test System: AMES SALMONELLA TYPHIMURIUM, Strain/Indicator: TA100, Metabolic Activation: RAT, LIVER, S-9, AROCLOR 1254, Method: STANDARD PLATE

O=[N+]([O-])c1ccc2c(c1)CCc1cc([N+](=O)[O-])ccc1-2
mutagenic call [1]: active; positive
mutagenic call [2]: active; positive
mutagenic call [3]: active; positive

Nc1ccc(/C=C/c2cccc(Cl)c2)cc1
mutagenic call [1]: inactive; negative
mutagenic call (Test System: AMES SALMONELLA TYPHIMURIUM, Strain/Indicator: TA98(1,8-DNP6), Metabolic Activation: S-9, Method: STANDARD PLATE): active; positive
mutagenic call [3]: active; positive
mutagenic call [4]: active; positive
mutagenic call [5]: inactive; negative
mutagenic call [6]: active; positive

CN1CCN(c2ccc3nc(Cc4ccc5nc(-c6ccc(N(CCCl)CCCl)cc6)[nH]c5c4)[nH]c3c2)CC1
mutagenic call [3]: inactive; negative
mutagenic call [5]: inactive; negative
mutagenic call (Test System: AMES SALMONELLA TYPHIMURIUM, Strain/Indicator: TA102, Metabolic Activation: NONE, Method: STANDARD PLATE): inactive; negative

N.N.[Br-].[Br-].[Pt+2]
mutagenic call [7]: active; positive
mutagenic call [8]: active; positive

CC(C)(C)NCC(O)COc1ccccc1C1=CCCC1 (stereo not drawn)
mutagenic call [3]: inactive; negative
mutagenic call [9]: inactive; negative

CC(=O)CCC(C)=O
mutagenic call [7]: inactive; negative
mutagenic call (Test System: AMES SALMONELLA TYPHIMURIUM, Strain/Indicator: TA98, Metabolic Activation: RAT, LIVER, S-9, AROCLOR 1254, Method: PREINCUBATION): inactive; negative
mutagenic call [8]: inactive; negative
mutagenic call (Test System: AMES SALMONELLA TYPHIMURIUM, Strain/Indicator: TA100, Metabolic Activation: RAT, LIVER, S-9, AROCLOR 1254, Method: PREINCUBATION): inactive; negative
mutagenic call (Test System: AMES SALMONELLA TYPHIMURIUM, Strain/Indicator: TA102, Metabolic Activation: NONE, Method: PREINCUBATION): inactive; negative
mutagenic call (Test System: AMES SALMONELLA TYPHIMURIUM, Strain/Indicator: TA102, Metabolic Activation: RAT, LIVER, S-9, AROCLOR 1254, Method: PREINCUBATION): inactive; negative

O=C1CCC(=O)N1c1cc(Cl)cc(Cl)c1
mutagenic call [3]: inactive; negative
mutagenic call [9]: inactive; negative
mutagenic call [5]: inactive; negative
mutagenic call [10]: inactive; negative

Cc1cnc2c(n1)c(C)c(C)c1c2nc(N)n1C
mutagenic call [9]: active; positive

CCN(CC)CCOc1ccc(C(=C(Cl)c2ccccc2)c2ccccc2)cc1
mutagenic call [7]: inactive; negative
mutagenic call (Test System: AMES SALMONELLA TYPHIMURIUM, Strain/Indicator: TA98, Metabolic Activation: RAT LIVER S-9, 3-METHYLCHOLANTHRENE, Method: PREINCUBATION): active; positive
mutagenic call (Test System: AMES SALMONELLA TYPHIMURIUM, Strain/Indicator: TA98, Metabolic Activation: RAT LIVER S-9, AROCLOR 1254, Method: PREINCUBATION): active; positive
mutagenic call (Test System: AMES SALMONELLA TYPHIMURIUM, Strain/Indicator: TA98, Metabolic Activation: RAT LIVER S-9, PHENOBARBITAL, Method: PREINCUBATION): active; positive
mutagenic call (Test System: AMES SALMONELLA TYPHIMURIUM, Strain/Indicator: TA98, Metabolic Activation: RAT LIVER S-9, STREPTOZOCINE, Method: PREINCUBATION): active; positive

CCC12OC1(C(=O)OC)C(=O)NC2(C)O (stereo not drawn)
mutagenic call (Test System: AMES SALMONELLA TYPHIMURIUM, Strain/Indicator: TA98, Metabolic Activation: NONE, Method: DISK ASSAY): inactive; negative
mutagenic call [3]: inactive; negative
mutagenic call (Test System: AMES SALMONELLA TYPHIMURIUM, Strain/Indicator: TA98, Metabolic Activation: RAT, LIVER, S-9, AROCLOR 1254, Method: DISK ASSAY): inactive; negative
mutagenic call [9]: active; positive

c1ccc2c(c1)-c1cc3ccccc3c3cc4c(c-2c13)CCCC4
mutagenic call (Test System: AMES SALMONELLA TYPHIMURIUM, Strain/Indicator: TA100, Metabolic Activation: RAT, LIVER, S-9, 3-METHYLCHOLANTHRENE, Method: STANDARD PLATE): active; positive

CCOC(=O)/C=C\C(=O)OCC
mutagenic call (Test System: MOUSE LYMPHOMA, Strain/Indicator: L5178Y (TK+/TK-), Metabolic Activation: NONE, Method: SUSPENSION/PLATE): active; positive

COc1ccc(/C=C/c2ccc([N+](=O)[O-])cc2)cc1
mutagenic call [2]: inactive; negative
mutagenic call (Test System: AMES SALMONELLA TYPHIMURIUM, Strain/Indicator: TA98 (NR), Metabolic Activation: S-9, Method: STANDARD PLATE): active; positive
mutagenic call [3]: active; positive
mutagenic call [4]: active; positive
mutagenic call (Test System: AMES SALMONELLA TYPHIMURIUM, Strain/Indicator: TA100 (NR), Metabolic Activation: NONE, Method: STANDARD PLATE): inactive; negative
mutagenic call (Test System: AMES SALMONELLA TYPHIMURIUM, Strain/Indicator: TA100 (NR), Metabolic Activation: S-9, Method: STANDARD PLATE): inactive; negative
mutagenic call [5]: active; positive
mutagenic call [6]: active; positive

Cc1c(/C=N/OCc2ccc(Cl)cc2)c2cc([N+](=O)[O-])ccc2n1Cc1ccccc1
mutagenic call [3]: inactive; negative
mutagenic call (Test System: AMES SALMONELLA TYPHIMURIUM, Strain/Indicator: TA98, Metabolic Activation: RAT, LIVER, S-9, PHENOBARBITAL AND BETA-NAPHTHOFLAVONE, Method: STANDARD PLATE): inactive; negative
mutagenic call [5]: inactive; negative
mutagenic call (Test System: AMES SALMONELLA TYPHIMURIUM, Strain/Indicator: TA100, Metabolic Activation: RAT, LIVER, S-9, PHENOBARBITAL AND BETA-NAPHTHOFLAVONE, Method: STANDARD PLATE): inactive; negative

[N-]=[N+]=NCCO
mutagenic call (Test System: AMES SALMONELLA TYPHIMURIUM, Strain/Indicator: TA1535, Metabolic Activation: NONE, Method: STANDARD PLATE): active; positive

Cc1ccc([N+](=O)[O-])c(C)c1[N+](=O)[O-]
mutagenic call [7]: inactive; negative
mutagenic call (Test System: AMES SALMONELLA TYPHIMURIUM, Strain/Indicator: TA98, Metabolic Activation: RAT, LIVER, S-9, KANECHLOR 500, Method: PREINCUBATION): inactive; negative
mutagenic call (Test System: AMES SALMONELLA TYPHIMURIUM, Strain/Indicator: TA100, Metabolic Activation: RAT, LIVER, S-9, KANECHLOR 500, Method: PREINCUBATION): active; positive

CCCCOc1cc(N=Nc2ccc(N(CC)CC)cc2)ccc1N=Nc1c(S(=O)(=O)O)cc2ccc(N)cc2c1O
mutagenic call [3]: inactive; negative
mutagenic call [9]: active; positive
mutagenic call [5]: inactive; negative
mutagenic call [10]: inactive; negative
mutagenic call (Test System: AMES SALMONELLA TYPHIMURIUM, Strain/Indicator: TA1538, Metabolic Activation: NONE, Method: STANDARD PLATE): inactive; negative
mutagenic call (Test System: AMES SALMONELLA TYPHIMURIUM, Strain/Indicator: TA1538, Metabolic Activation: RAT, LIVER, S-9, AROCLOR 1254, Method: STANDARD PLATE): active; positive

CNC(=O)NO
mutagenic call [3]: inactive; negative
mutagenic call [5]: inactive; negative

CC(N)=O
mutagenic call (End Point: IN VIVO MICRONUCLEUS, Test System: BLOOD ERYTHROCYTES, Species: MOUSE, Strain/Sex: CD-1/MALE, Route: INTRAPERITONEAL INJECTION): inactive; negative
mutagenic call [3]: inactive; negative
mutagenic call (Test System: AMES SALMONELLA TYPHIMURIUM, Strain/Indicator: TA98, Metabolic Activation: RAT, LIVER, S-9, Method: STANDARD PLATE): inactive; negative
mutagenic call [5]: inactive; negative
mutagenic call (Test System: AMES SALMONELLA TYPHIMURIUM, Strain/Indicator: TA100, Metabolic Activation: RAT, LIVER, S-9, Method: STANDARD PLATE): inactive; negative
mutagenic call (Test System: Ames Salmonella typhimurium, Strain/Indicator: YG7108pin3ERb5, Metabolic Activation: None, Method: Standard plate): inactive; negative
